Data reported in patent US12398120B2, “Substituted hydantoinamides as ADAMTS7 antagonists” (BAYER AKTIENGESELLSCHAFT, priority 2019, dated 2025).

Each molecule was assayed against ADAMTS4 (Homo sapiens (Human), UniProt O75173) (assay: Selectivity assay for ADAMTS-7 modulators: ADAMTS4 (FRET substrate)). Details: ADAMTS4 (R&D 4307-AD) 50 nM, substrate Dabcyl-EEVKAKVQPY-Glu(Edans)-NH2 1 μM, 120 min, 32° C.
ADAMTS4, sequence (O75173 213-685): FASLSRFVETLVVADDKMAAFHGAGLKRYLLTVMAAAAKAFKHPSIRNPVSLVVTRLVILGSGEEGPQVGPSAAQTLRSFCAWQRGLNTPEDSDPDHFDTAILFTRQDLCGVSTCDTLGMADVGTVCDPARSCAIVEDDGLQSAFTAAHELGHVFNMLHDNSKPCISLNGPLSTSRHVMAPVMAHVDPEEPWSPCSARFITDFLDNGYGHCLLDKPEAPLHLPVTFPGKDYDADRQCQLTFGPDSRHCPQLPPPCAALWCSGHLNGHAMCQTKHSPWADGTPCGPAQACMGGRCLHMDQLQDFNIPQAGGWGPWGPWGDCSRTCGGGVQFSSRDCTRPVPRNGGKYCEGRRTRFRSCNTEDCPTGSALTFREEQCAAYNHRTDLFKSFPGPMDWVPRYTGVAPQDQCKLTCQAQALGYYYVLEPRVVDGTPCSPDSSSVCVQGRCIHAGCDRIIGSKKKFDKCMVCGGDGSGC
Type: biochemical
How it was run: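 Activity read as rising fluorescence after a FRET substrate is cleaved by human ADAMTS4, with reactions started by substrate addition to wells holding compound or DMSO. Percent inhibition plotted against concentration gave IC50.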
Cc1scnc1C1(CNC(=O)c2ccccc2-c2ccc(Cl)cc2)NC(=O)NC1=O (single isomer, unassigned; ent-4) [Example 172, Ent-4′-Chloro-N-{[4-(5-Methyl-1,3-Thiazol-4-Yl)-2,5-Dioxoimidazolidin-4-Yl]Methyl}[Biphenyl]-2-Carboxamide] was tested, and the IC50 was 3.1 µM.
In the case of Cc1scnc1C1(CNC(=O)c2cc(F)ccc2-c2ccc(Cl)cc2)NC(=O)NC1=O (single isomer, unassigned; ent-4) [Example 174, Ent-4′-Chloro-4-Fluoro-N-{[4-(5-Methyl-1,3-Thiazol-4-Yl)-2,5-Dioxoimidazolidin-4-Yl]Methyl}[Biphenyl]-2-Carboxamide], the IC50 is reported as 2.6 µM.
With Cc1scnc1C1(CNC(=O)c2ccccc2-c2ccc(S(C)(=O)=O)cc2)NC(=O)NC1=O (single isomer, unassigned; ent-4) [Example 175, Ent-4′-(Methylsulfonyl)-N-{[4-(5-Methyl-1,3-Thiazol-4-Yl)-2,5-Dioxoimidazolidin-4-Yl]Methyl}[Biphenyl]-2-Carboxamide] the IC50 was 4.9 µM.
Cn1nccc1C1(CNC(=O)c2cc(F)ccc2-c2ccc(C(F)(F)F)cc2)NC(=O)NC1=O (single isomer, unassigned; ent-4) [Example 178, Ent-4-Fluoro-N-{[4-(1-Methyl-1H-Pyrazol-5-Yl)-2,5-Dioxoimidazolidin-4-Yl]Methyl}-4′-(Trifluoromethyl)[Biphenyl]-2-Carboxamide] showed an IC50 of 5.37 µM.
Work on Cn1nccc1C1(CNC(=O)c2ccc(F)cc2-c2ccc(Cl)cc2)NC(=O)NC1=O (single isomer, unassigned; ent-4) [Example 180, Ent-4′-Chloro-5-Fluoro-N-{[4-(1-Methyl-1H-Pyrazol-5-Yl)-2,5-Dioxoimidazolidin-4-Yl]Methyl}[Biphenyl]-2-Carboxamide] yielded an IC50 of 17.8 µM.
Cn1nccc1C1(CNC(=O)c2ccccc2-c2ccc(Cl)cc2)NC(=O)NC1=O (single isomer, unassigned; ent-4) [Example 182, Ent-4′-Chloro-N-{[4-(1-Methyl-1H-Pyrazol-5-Yl)-2,5-Dioxoimidazolidin-4-Yl]Methyl}[Biphenyl]-2-Carboxamide] was tested, and the IC50 was 4.03 µM.
In the case of Cn1nccc1C1(CNC(=O)c2cc(F)ccc2-c2ccc(Cl)cc2)NC(=O)NC1=O (single isomer, unassigned; ent-4) [Example 187, Ent-4′-Chloro-4-Fluoro-N-{[4-(1-Methyl-1H-Pyrazol-5-Yl)-2,5-Dioxoimidazolidin-4-Yl]Methyl}[Biphenyl]-2-Carboxamide], the IC50 is reported as 3.55 µM.
In the case of Cn1nccc1C1(CNC(=O)c2cc(F)c(F)cc2-c2ccc(C(F)(F)F)cc2)NC(=O)NC1=O (single isomer, unassigned; ent-4) [Example 192, Ent-4,5-Difluoro-N-{[4-(1-Methyl-1H-Pyrazol-5-Yl)-2,5-Dioxoimidazolidin-4-Yl]Methyl}-4′-(Trifluoromethyl)[Biphenyl]-2-Carboxamide], the IC50 is reported as 7.13 µM.
Cn1nccc1C1(CNC(=O)c2ccc(Cl)cc2-c2ccc(Cl)cc2)NC(=O)NC1=O (single isomer, unassigned; ent-4) [Example 193, Ent-4′,5-Dichloro-N-{[4-(1-Methyl-1H-Pyrazol-5-Yl)-2,5-Dioxoimidazolidin-4-Yl]Methyl}[Biphenyl]-2-Carboxamide] was tested, and the IC50 was 1.57 µM.
With CC(C)C1(CNC(=O)c2cc(F)ccc2-c2ccc(C(F)(F)F)cc2)NC(=O)NC1=O (single isomer, unassigned; ent-4) [Example 212, Ent-4-Fluoro-N-[(4-Isopropyl-2,5-Dioxoimidazolidin-4-Yl)Methyl]-4′-(Trifluoromethyl)[Biphenyl]-2-Carboxamide] the IC50 was 13 µM.
In the case of CC(C)C1(CNC(=O)c2cc(F)c(F)cc2-c2ccc(C(F)(F)F)cc2)NC(=O)NC1=O (single isomer, unassigned; ent-4) [Example 213, Ent-4,5-Difluoro-N-[(4-Isopropyl-2,5-Dioxoimidazolidin-4-Yl)Methyl]-4′-(Trifluoromethyl)[Biphenyl]-2-Carboxamide], the IC50 is reported as 30 µM.
With O=C1NC(=O)C(CNC(=O)c2ccccc2-c2ccc(Cl)cc2)(C2CC(F)(F)C2)N1 (single isomer, unassigned; ent-4) [Example 247, Ent-4′-Chloro-N-{[4-(3,3-Difluorocyclobutyl)-2,5-Dioxoimidazolidin-4-Yl]Methyl}[Biphenyl]-2-Carboxamide] the IC50 was > 50 µM.
O=C1NC(=O)C(CNC(=O)c2ccccc2-c2ccc(Cl)cc2)(C2(F)CC2)N1 (single isomer, unassigned; ent-4) [Example 251, Ent-4′-Chloro-N-{[4-(1-Fluorocyclopropyl)-2,5-Dioxoimidazolidin-4-Yl]Methyl}[Biphenyl]-2-Carboxamide] showed an IC50 of 11 µM.
Work on O=C1NC(=O)C(CNC(=O)c2ccccc2-c2ccc(Cl)cc2)(c2ccnn2C(F)F)N1 (single isomer, unassigned; ent-4) [Example 259, Ent-4′-Chloro-N-({4-[1-(Difluoromethyl)-1H-Pyrazol-5-Yl]-2,5-Dioxoimidazolidin-4-Yl}Methyl)[Biphenyl]-2-Carboxamide] yielded an IC50 of 5.8 µM.
Molecule Cn1nccc1C1(CNC(=O)c2ccc(Cl)cc2-c2ccc(C(F)(F)F)nc2)NC(=O)NC1=O (single isomer, unassigned; ent-4) [Example 289, Ent-4-Chloro-N-{[4-(1-Methyl-1H-Pyrazol-5-Yl)-2,5-Dioxoimidazolidin-4-Yl]Methyl}-2-[6-(Trifluoromethyl)Pyridin-3-Yl]Benzamide] has an IC50 of 6.3 µM.
Work on Cn1nccc1C1(CNC(=O)c2ccc(F)cc2-c2ccc(C(F)(F)F)nc2)NC(=O)NC1=O (single isomer, unassigned; ent-4) [Example 291, Ent-4-Fluoro-N-{[4-(1-Methyl-1H-Pyrazol-5-Yl)-2,5-Dioxoimidazolidin-4-Yl]Methyl}-2-[6-(Trifluoromethyl)Pyridin-3-Yl]Benzamide] yielded an IC50 of 14 µM.
With Cn1nccc1C1(CNC(=O)c2c(F)cccc2-c2ccc(Cl)cc2)NC(=O)NC1=O (single isomer, unassigned; ent-4) [Example 312, Ent-4′-Chloro-3-Fluoro-N-{[4-(1-Methyl-1H-Pyrazol-5-Yl)-2,5-Dioxoimidazolidin-4-Yl]Methyl}[Biphenyl]-2-Carboxamide] the IC50 was 20 µM.
With Cn1nccc1C1(CNC(=O)c2ccccc2-c2ccc(Cl)cc2F)NC(=O)NC1=O (single isomer, unassigned; ent-4) [Example 313, Ent-4′-Chloro-2′-Fluoro-N-{[4-(1-Methyl-1H-Pyrazol-5-Yl)-2,5-Dioxoimidazolidin-4-Yl]Methyl}[Biphenyl]-2-Carboxamide] the IC50 was 23 µM.
COc1cc(Cl)ccc1-c1ccccc1C(=O)NCC1(c2ccnn2C)NC(=O)NC1=O (single isomer, unassigned; ent-4) [Example 314, Ent-4′-Chloro-2′-Methoxy-N-{[4-(1-Methyl-1H-Pyrazol-5-Yl)-2,5-Dioxoimidazolidin-4-Yl]Methyl}[Biphenyl]-2-Carboxamide] was tested, and the IC50 was > 50 µM.
Work on Cc1ncsc1C1(CNC(=O)c2ccc(Cl)cc2-c2ccc(C(F)(F)F)cc2)NC(=O)NC1=O (single isomer, unassigned; ent-5) [Example 7, Ent-5-Chloro-N-{[4-(4-Methyl-1,3-Thiazol-5-Yl)-2,5-Dioxoimidazolidin-4-Yl]Methyl}-4′-(Trifluoromethyl)[Biphenyl]-2-Carboxamide] yielded an IC50 of 3.7 µM.
For Cc1ccc(C(=O)NCC2(c3scnc3C)NC(=O)NC2=O)c(-c2ccc(C(F)(F)F)cc2)c1 (single isomer, unassigned; ent-5) [Example 8, Ent-5-Methyl-N-{[4-(4-Methyl-1,3-Thiazol-5-Yl)-2,5-Dioxoimidazolidin-4-Yl]Methyl}-4′-(Trifluoromethyl)[Biphenyl]-2-Carboxamide], the IC50 was 3.8 µM.
Cc1ncsc1C1(CNC(=O)c2ccc(F)cc2-c2ccc(C(F)(F)F)cc2)NC(=O)NC1=O (single isomer, unassigned; ent-5) [Example 10, Ent-5-Fluoro-N-{[4-(4-Methyl-1,3-Thiazol-5-Yl)-2,5-Dioxoimidazolidin-4-Yl]Methyl}-4′-(Trifluoromethyl)[Biphenyl]-2-Carboxamide] gave an IC50 of 8.9 µM.
For Cc1scnc1C1(CNC(=O)c2ccc(Cl)cc2-c2ccc(C(F)(F)F)cc2)NC(=O)NC1=O (single isomer, unassigned; ent-5) [Example 16, Ent-5-Chloro-N-{[4-(5-Methyl-1,3-Thiazol-4-Yl)-2,5-Dioxoimidazolidin-4-Yl]Methyl}-4′-(Trifluoromethyl)[Biphenyl]-2-Carboxamide], the IC50 was 3.5 µM.
With Cc1c(C2(CNC(=O)c3ccc(Cl)cc3-c3ccc(C(F)(F)F)cc3)NC(=O)NC2=O)cnn1C (single isomer, unassigned; ent-5) [Example 79, Ent-5-Chloro-N-{[4-(1,5-Dimethyl-1H-Pyrazol-4-Yl)-2,5-Dioxoimidazolidin-4-Yl]Methyl}-4′-(Trifluoromethyl)[Biphenyl]-2-Carboxamide] the IC50 was 2.1 µM.
Cn1ccnc1C1(CNC(=O)c2ccc(F)cc2-c2ccc(C(F)(F)F)cc2)NC(=O)NC1=O (single isomer, unassigned; ent-5) [Example 150, Ent-5-Fluoro-N-{[4-(1-Methyl-1H-Imidazol-2-Yl)-2,5-Dioxoimidazolidin-4-Yl]Methyl}-4′-(Trifluoromethyl)[Biphenyl]-2-Carboxamide] gave an IC50 of 1.85 µM.
For Cc1ccc(C(=O)NCC2(c3nccn3C)NC(=O)NC2=O)c(-c2ccc(C(F)(F)F)cc2)c1 (single isomer, unassigned; ent-5) [Example 151, Ent-5-Methyl-N-{[4-(1-Methyl-1H-Imidazol-2-Yl)-2,5-Dioxoimidazolidin-4-Yl]Methyl}-4′-(Trifluoromethyl)[Biphenyl]-2-Carboxamide], the IC50 was 1.02 µM.

Same assay, conditions: ADAMTS4 (R&D 4307-AD) 50 nM, substrate Dabcyl-[…]-Glu(Edans)-NH2 1 μM, 120 min, 32° C.
O=C1NC(=O)C(CNC(=O)c2ccc(F)cc2-c2ccc(Cl)cc2)(C2(F)CC2)N1 (single isomer, unassigned; ent-4) [Example 301, Ent-4′-Chloro-5-Fluoro-N-{[4-(1-Fluorocyclopropyl)-2,5-Dioxoimidazolidin-4-Yl]Methyl}[Biphenyl]-2-Carboxamide] showed an IC50 of 15 µM.
